The text below walks through data of ChEMBL document CHEMBL1145918, “Synthesis, comparative photosensitizing efficacy, human serum albumin (site II) binding ability, and intracellular localization characteristics of novel benzobacteriochlorins derived from vic-dihydroxybacteriochlorins” (J Med Chem, 2003).

Chain of Albumin (P02768 whole entry): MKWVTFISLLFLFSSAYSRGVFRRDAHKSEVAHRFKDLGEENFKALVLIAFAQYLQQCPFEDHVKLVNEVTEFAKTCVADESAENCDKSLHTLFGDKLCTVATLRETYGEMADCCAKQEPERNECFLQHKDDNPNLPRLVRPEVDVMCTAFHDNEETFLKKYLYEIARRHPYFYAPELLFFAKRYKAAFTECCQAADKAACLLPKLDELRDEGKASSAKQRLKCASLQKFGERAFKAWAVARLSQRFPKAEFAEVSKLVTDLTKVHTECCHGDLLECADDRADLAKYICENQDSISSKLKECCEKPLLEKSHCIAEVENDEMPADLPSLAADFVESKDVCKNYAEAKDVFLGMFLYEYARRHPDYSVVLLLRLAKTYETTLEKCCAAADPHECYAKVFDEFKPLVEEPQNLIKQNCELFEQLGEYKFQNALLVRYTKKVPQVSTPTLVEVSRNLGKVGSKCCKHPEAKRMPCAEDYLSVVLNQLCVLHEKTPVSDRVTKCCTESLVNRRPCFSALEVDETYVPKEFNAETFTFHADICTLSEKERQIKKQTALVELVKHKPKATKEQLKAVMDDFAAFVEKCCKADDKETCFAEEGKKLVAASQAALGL

This data set addresses Albumin (Homo sapiens, UniProt P02768). In words: Compound was tested for its binding ability to site II of Human serum albumin (HSA) expressed as binding constant.
`CCCCCCN1C(=O)C2=C(C)c3cc4[nH]c(cc5[nH]c(cc6nc(c(c2n3)C1=O)[C@@H](CCC(=O)OC)[C@@H]6C)c(C)c5CC)C1(C)C4=CC=C(C(=O)OC)C1C(=O)OC` (stereo not given in full) came in with a K of 16100000 M⁻¹.
As for `CCc1c(C)c2cc3nc(c4c5nc(cc6[nH]c(cc1[nH]2)C1(C)C6=CC=C(C(=O)OC)C1C(=O)OC)C(C)=C5C(=O)C4)[C@@H](CCC(=O)OC)[C@@H]3C` (stereo not given in full), the figure is 10600000 M⁻¹.
On to `CCc1c(C)c2cc3nc(c(C(=O)OC)c4nc(cc5[nH]c(cc1[nH]2)C1(C)C5=CC=C(C(=O)OC)C1C(=O)OC)C(C)=C4C(=O)OC)[C@@H](CCC(=O)OC)[C@@H]3C` (stereo not given in full), for which the K worked out at 14400000 M⁻¹.
`CCc1c(C)c2cc3nc(c(CC(=O)OC)c4nc(cc5[nH]c(cc1[nH]2)C1(C)C5=CC=C(C(=O)OC)C1C(=O)OC)C(C)=C4C(=O)OC)[C@@H](CCC(=O)OC)[C@@H]3C` (stereo not given in full) showed a K of 17500000 M⁻¹.
With `CCc1c(C)c2cc3nc(c4c5nc(cc6[nH]c(cc1[nH]2)C1(C)C6=CC=C(C(=O)OC)C1C(=O)OC)C(C)=C5C(=O)N(Cc1cc(C(F)(F)F)cc(C(F)(F)F)c1)C4=O)[C@@H](CCC(=O)OC)[C@@H]3C` (stereo not given in full), the K was found to be 16000000 M⁻¹.
